Measurements reported in ChEMBL document CHEMBL3507680, “University of Dundee, Gates Library screen for HepG2 cell viability”.

Assay: Human HepG2 cell viability assay in 384 well format
Type: toxicity, cell-based
Set-up: dose 125 nL, time 70.5 hour; cytotoxicity at 70.5 h: concentration not given beside the values
Conditions: HepG2 cells, read-out: Inhibition

Cc1n[nH]c2c1C(c1ccncc1)SCC(=O)N2 (stereo not given)
cytotoxicity at 70.5 h: 19.3%

Cc1nn(-c2ccccn2)c2c1C(c1cnn(C)c1)SCC(=O)N2 (stereo not given)
cytotoxicity at 70.5 h: -27.3%

COC(=O)c1ccc(C2SCC(=O)Nc3c2cnn3C(C)(C)C)cc1 (stereo not given)
cytotoxicity at 70.5 h: -13.2%

CC(C)(C)n1ncc2c1NC(=O)CC2c1cccs1 (stereo not given)
cytotoxicity at 70.5 h: -6.21%

CCn1cc(-c2nn3c(C(C)C)nnc3s2)c(C)n1
cytotoxicity at 70.5 h: -14.2%

Cc1nn(C2CCS(=O)(=O)C2)c(O)c1Cc1ccccc1Cl (stereo not given)
cytotoxicity at 70.5 h: -18.5%

O=c1c(NCCO)c(N2CCN(c3ccccc3)CC2)c1=O
cytotoxicity at 70.5 h: -4.94%

CC(C)CNC(=O)CNc1c(NCc2ccccn2)c(=O)c1=O
cytotoxicity at 70.5 h: 2.45%

Cc1nn(C2CCS(=O)(=O)C2)c(O)c1Cc1ccccc1 (stereo not given)
cytotoxicity at 70.5 h: -16.5%

Cc1nn(C2CCS(=O)(=O)C2)c(O)c1CCc1ccccc1 (stereo not given)
cytotoxicity at 70.5 h: -8.16%

COc1c[nH]c(C(=O)Nc2nc(C)cs2)cc1=O
cytotoxicity at 70.5 h: -5.81%

Cc1cc(NC(=O)C(C#N)Cc2cnn(C)c2C)no1 (stereo not given)
cytotoxicity at 70.5 h: -13.8%

O=c1c(NCCNCCO)c(N2CCN(c3ccc(F)cc3)CC2)c1=O
cytotoxicity at 70.5 h: -7.08%

Cc1cccc(CN2CCCC(O)(CNCCN3CCCCC3)C2=O)c1 (stereo not given)
cytotoxicity at 70.5 h: 2.73%

CC(=O)c1cn(CC(=O)N2CCC3(CC2)OCCO3)c2ccccc12
cytotoxicity at 70.5 h: -5.36%

CCC(Oc1ccc(N(C)S(C)(=O)=O)cc1)C(N)=O (stereo not given)
cytotoxicity at 70.5 h: -5.31%

CCOCCN1C[C@H](c2cccc(OC)c2)[C@@H](N)C1
cytotoxicity at 70.5 h: -4.15%

N[C@H]1CN(C(=O)CCC(F)(F)F)C[C@@H]1c1ccccc1
cytotoxicity at 70.5 h: -5.15%

Cc1ccnc(OCC(=O)N2CCN(c3ncccn3)CC2)n1
cytotoxicity at 70.5 h: -12.6%

Cc1nc(C)c(C(=O)NCCNc2cc(N3CCCC3)ncn2)s1
cytotoxicity at 70.5 h: 9.32%

O=C(c1cncc(N2CCC3(CC2)NCCNC3=O)n1)N1CCCCC1
cytotoxicity at 70.5 h: -4.89%

CCC(NC(=O)C(C)C)c1ccccc1C (stereo not given)
cytotoxicity at 70.5 h: -5.31%

CCN1CCCC(CNC(=O)C2(c3cc(C)cc(C)c3)CCC2)C1 (stereo not given)
cytotoxicity at 70.5 h: 28.2%

CCNc1cc2c(nn1)CCN(C(=O)C(C)c1c(C)noc1C)C2 (stereo not given)
cytotoxicity at 70.5 h: -4.66%

CC(NC(=O)NCC1(c2ccc(F)cc2)CCCC1)c1nncn1C (stereo not given)
cytotoxicity at 70.5 h: -3.48%

O=C(CCn1cncn1)NC1CCc2nccn2C1 (stereo not given)
cytotoxicity at 70.5 h: -0.747%

COCCN1CCN(C(C)c2nc(C3CC3)no2)CC1 (stereo not given)
cytotoxicity at 70.5 h: 17%

Cc1noc(C(C)N2CCN(CCOCC(F)(F)F)CC2)n1 (stereo not given)
cytotoxicity at 70.5 h: 27.9%

CCOCCN1CCN(C(C)c2nc(C3CC3)no2)CC1 (stereo not given)
cytotoxicity at 70.5 h: 12.1%

CCOc1ncccc1NC(=O)N1CCCN(C(=O)OC)CC1
cytotoxicity at 70.5 h: -0.675%

Cc1cc(C2CCCN(C(=O)Cc3csc(C(C)C)n3)C2)n[nH]1 (stereo not given)
cytotoxicity at 70.5 h: -5.03%

CC(C)CC(=O)Nc1cccc(CNCc2cccs2)c1
cytotoxicity at 70.5 h: -3.67%

CCOc1ncccc1NC(=O)N1CCN(c2ccc(O)cc2)CC1
cytotoxicity at 70.5 h: 1.58%

Cc1ccccc1C(C)N(C)Cc1nc2c(cnn2C)c(=O)[nH]1 (stereo not given)
cytotoxicity at 70.5 h: -6.49%

CN(CC(=O)N1CCC(N(C)c2ccccc2)CC1)c1cnccn1
cytotoxicity at 70.5 h: 0.531%

CCOc1ccc(OCCN2CCC(N3CCNC3=O)CC2)cc1
cytotoxicity at 70.5 h: 19%

CC1CN(C)CCN1CC(=O)NCCOc1cccc(F)c1 (stereo not given)
cytotoxicity at 70.5 h: -1.27%

Clc1ccc(CN2CCCCC2Cn2cncn2)c2ncccc12 (stereo not given)
cytotoxicity at 70.5 h: -0.976%

CC(C)c1ccc(OCCNC(=O)CN2CCN(C)CC2C)cc1 (stereo not given)
cytotoxicity at 70.5 h: 1.16%

CCN1CCOC(CNCc2ccccc2OCc2ccncc2)C1 (stereo not given)
cytotoxicity at 70.5 h: 14.2%

CNc1nc(CNC(=O)Nc2cccc(OC)c2)cs1
cytotoxicity at 70.5 h: -0.727%

CNc1nc(CNC(=O)Nc2cccc(-c3ncc(C)o3)c2)cs1
cytotoxicity at 70.5 h: 9.47%

CNc1nc(CNC(=O)Nc2cccc(CSC)c2)cs1
cytotoxicity at 70.5 h: -3.79%

COc1ccc(CC(=O)N2CCCC(c3cc(C)[nH]n3)C2)cc1 (stereo not given)
cytotoxicity at 70.5 h: -3.16%

CNc1nc(CNC(=O)Nc2cccc(C(C)OC)c2)cs1 (stereo not given)
cytotoxicity at 70.5 h: -4.31%

CC(=O)NCCNC(=O)CN1CCOC(Cn2cccn2)C1 (stereo not given)
cytotoxicity at 70.5 h: 0.989%

Cn1cc(CCNC(=O)NCc2ccc3c(c2)OCCO3)cn1
cytotoxicity at 70.5 h: 2.32%

CN(Cc1cccc(F)c1)C(=O)c1cc2c([nH]c1=O)CCCC2=O
cytotoxicity at 70.5 h: 2.65%

CN(Cc1ccc2c(c1)OCO2)C(=O)NCCc1cnn(C)c1
cytotoxicity at 70.5 h: -3.13%

CC(NC(=O)NCCCn1cncn1)c1ccc(C(F)(F)F)cc1 (stereo not given)
cytotoxicity at 70.5 h: -7.5%

CC(NC(=O)NCCCn1cncn1)c1ccc(F)cc1 (stereo not given)
cytotoxicity at 70.5 h: -4.64%

O=C1CCCc2[nH]c(=O)c(C(=O)N(Cc3ccsc3)C3CC3)cc21
cytotoxicity at 70.5 h: -1.04%

CC(C)(C)c1nc(CN2CCN(C(=O)c3cnccn3)CC2)cs1
cytotoxicity at 70.5 h: -1.47%

CN(Cc1cnn(C)c1)C(=O)NCc1ccc2c(c1)OCCO2
cytotoxicity at 70.5 h: 0.47%

COCCCNC(=O)CN(C)C(=O)c1ccc(-n2cccc2)cc1O
cytotoxicity at 70.5 h: -0.626%

Cc1ccsc1CN(C)C(=O)c1cc2c([nH]c1=O)CCCC2=O
cytotoxicity at 70.5 h: -7.76%

Cc1csc(N2CCN(CC(=O)N3CCNC3=O)CC2C)n1 (stereo not given)
cytotoxicity at 70.5 h: 12%

Cc1csc(N2CCN(CC(=O)Nc3ccncc3)CC2C)n1 (stereo not given)
cytotoxicity at 70.5 h: 9.84%

Cc1csc(N2CCN(CC(=O)Nc3cc(C)nn3C)CC2C)n1 (stereo not given)
cytotoxicity at 70.5 h: 2.09%

OCCn1cc(CN2CCN(CCOc3ccc(F)cc3)CC2)cn1
cytotoxicity at 70.5 h: -2.54%

OCCn1cc(CN2CCN(CCOc3cccc(F)c3)CC2)cn1
cytotoxicity at 70.5 h: 1.71%

Cc1csc(CNC(=O)N(C)Cc2ccncc2)n1
cytotoxicity at 70.5 h: -0.603%

Cc1ccc(N(CCC#N)C(=O)CN2CCCC2c2ccsc2)cc1C (stereo not given)
cytotoxicity at 70.5 h: 0.542%

COCCCNC(=O)CN(C)C(=O)c1cc2cc(C)ccc2nc1C
cytotoxicity at 70.5 h: 3.78%

CCN(CC)Cc1ccc(C(=O)N2CCCC2Cn2cc(C)cn2)o1 (stereo not given)
cytotoxicity at 70.5 h: 2.44%

CCN(CC)Cc1ccc(C(=O)N2CCCC2Cn2cccn2)cc1 (stereo not given)
cytotoxicity at 70.5 h: -7.71%

Cc1ccsc1CNC(=O)N(C)Cc1cnn(C)c1
cytotoxicity at 70.5 h: -12.7%

CCN(CC)Cc1ccc(C(=O)N2CCCC2Cn2cccn2)o1 (stereo not given)
cytotoxicity at 70.5 h: -1.33%

O=C(CN1CCOC(CNc2cccnn2)C1)NCc1cccs1 (stereo not given)
cytotoxicity at 70.5 h: -0.0167%

CN(Cc1cnn(C)c1)C(=O)NCCc1ccc2c(c1)OCCO2
cytotoxicity at 70.5 h: -2.65%

Cn1c(CN2CCCC(Cn3cncn3)C2)nc2ccccc21 (stereo not given)
cytotoxicity at 70.5 h: 28.9%

c1ccc2nc(CN3CCCC3c3noc(C4CC4)n3)ccc2c1 (stereo not given)
cytotoxicity at 70.5 h: 21.2%

Cc1nc(C2CCCN2C(=O)c2ccc(N(C)C)nn2)no1 (stereo not given)
cytotoxicity at 70.5 h: 25.8%

CSc1ccc(CNC(c2ccc(F)cc2)c2nccn2C)cc1 (stereo not given)
cytotoxicity at 70.5 h: 0.212%

COc1cc(CNC(c2ccccc2)c2nccn2C)cc(OC)c1 (stereo not given)
cytotoxicity at 70.5 h: 0.143%

CCCOc1ncccc1CNc1nnc(C)c(C)c1C#N
cytotoxicity at 70.5 h: 21.8%

CC1CN(CC(=O)NCc2ccccn2)CCN1Cc1nccn1C (stereo not given)
cytotoxicity at 70.5 h: -3.22%

CCc1nnc2n1CCN(Cc1cc(Cl)c3c(c1)OCCO3)C2
cytotoxicity at 70.5 h: 21.4%

CC1CN(CC(=O)Nc2nccs2)CCN1Cc1nccn1C (stereo not given)
cytotoxicity at 70.5 h: -6.31%

C=C(C)CN1CCN(Cc2nccn2C)C(C)C1 (stereo not given)
cytotoxicity at 70.5 h: 30.2%

CC1CN(CC(=O)NC(C2CC2)C2CC2)CCN1Cc1nccn1C (stereo not given)
cytotoxicity at 70.5 h: -3.28%

Cc1nnc2n1CCN(Cc1ccc3c(c1)OCCO3)C2
cytotoxicity at 70.5 h: -2.45%

CC1CN(CC(=O)NCc2ccccc2)CCN1Cc1nccn1C (stereo not given)
cytotoxicity at 70.5 h: 0.503%

O=c1[nH]c(CN2CCCC(Cn3cncn3)C2)nc2ccccc12 (stereo not given)
cytotoxicity at 70.5 h: -4.42%

O=C(Nc1cccc(CNCc2ccsc2)c1)C1CC1
cytotoxicity at 70.5 h: 7.14%
